According to PubChem BioAssay (NCI):
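48-hour exposure; five concentrations; linearly interpolated endpoints. The concentration for 50% growth inhibition is given as GI50. At the TGI there is no net growth.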

Legend:
Assay in all cases: NCI-60 cell line screen, 48 h
HOP-92 NSCLC = test system: HOP-92 NSCLC
OVCAR-3 ovarian = test system: OVCAR-3 ovarian
SK-MEL-28 melanoma = test system: SK-MEL-28 melanoma
MALME-3M melanoma = test system: MALME-3M melanoma
MCF7 breast = test system: MCF7 breast
BT-549 breast = test system: BT-549 breast
SN12C renal = test system: SN12C renal
COLO 205 colon = test system: COLO 205 colon
MOLT-4 leukemia = test system: MOLT-4 leukemia
RPMI-8226 leukemia = test system: RPMI-8226 leukemia

| SMILES | TGI (HOP-92 NSCLC) [µM] | TGI (OVCAR-3 ovarian) [µM] | TGI (SK-MEL-28 melanoma) [µM] | TGI (MALME-3M melanoma) [µM] | TGI (MCF7 breast) [µM] | TGI (BT-549 breast) [µM] | TGI (SN12C renal) [µM] | TGI (COLO 205 colon) [µM] | TGI (MOLT-4 leukemia) [µM] | TGI (RPMI-8226 leukemia) [µM] | GI50 (HOP-92 NSCLC) [µM] | GI50 (OVCAR-3 ovarian) [µM] | GI50 (SK-MEL-28 melanoma) [µM] | GI50 (MALME-3M melanoma) [µM] | GI50 (MCF7 breast) [µM] | GI50 (BT-549 breast) [µM] | GI50 (SN12C renal) [µM] | GI50 (COLO 205 colon) [µM] | GI50 (MOLT-4 leukemia) [µM] | GI50 (RPMI-8226 leukemia) [µM] |
| --- | --- | --- | --- | --- | --- | --- | --- | --- | --- | --- | --- | --- | --- | --- | --- | --- | --- | --- | --- | --- |
| O=S(=O)(CC(O)C(Cl)(Cl)Cl)NNc1ccccc1 (stereo not given) | > 100 | > 100 | > 100 | > 100 | > 100 | > 100 | > 100 | > 100 | > 100 | > 100 |  |  |  |  |  |  |  |  |  |  |
| O=C(NCCSSCCNC(=O)/C(Cc1ccc(O)c(Br)c1)=N/O)/C(Cc1ccc(O)c(Br)c1)=N/O | 22.9 | 6.06 | 16.3 | 7.44 | 8.21 | 15 | 5.73 | 6.82 | 8.58 | 5.35 |  |  |  |  |  |  |  |  |  |  |
| Cc1cc2oc(=O)c(Cl)c(Cl)c2c(C)c1Cl | 7.45 | 7.1 | 28.9 | 23.7 | 23.5 | 39 | 24.5 | 8.09 | 5.21 | 6 |  |  |  |  |  |  |  |  |  |  |
| [CH3][Sn]([CH3])([CH3])[O]C(=O)C(O)c1ccccc1 (stereo not given) | 14.4 | 66.2 | > 100 | 24.8 | > 100 | > 100 | 99 | 23.7 | > 100 | > 44.2 | 2.91 | 5.38 | 8.55 | 5.6 | > 100 | 17.9 | 8.7 | 4.93 | 4.86 | 3.38 |
| O=C(CCCCCNC1=CC(=O)c2ccccc2C1=O)NCCC[Te]c1ccccc1 | 1.65 | 2.22 | 3.34 | 4.21 | 4.66 | 0.916 | 1.56 | 1.36 | 0.746 | 1.04 | 0.583 | 0.676 | 1.21 | 2.21 | 0.327 | 0.297 | 0.331 | 0.416 | 0.258 | 0.291 |
| S=C(Nc1ccc(Cl)cc1)SC1CCCCC1 | 71.2 | 56.9 | 49.6 | 85.9 | 40.6 | > 100 | 51.3 | > 100 | 92.4 | > 100 |  |  |  |  |  |  |  |  |  |  |
| Cc1ccc(-n2nnc3c(sc4ccccc43)c2=O)cc1 | 6.82 | > 100 | > 100 | > 100 | > 100 | > 100 | > 100 | > 100 | > 100 | > 100 | 1.54 | 17 | > 100 | 8.4 | 43.7 | > 100 | > 100 | 6.23 | > 100 | 24 |
| Cc1ccn2c(-c3csc(Nc4cccc(O)c4)n3)c(C)nc2c1 | 22.7 | 0.914 | 36.3 | 25 | 27.3 | 33.6 | 27.8 | 26.3 | 27.9 | 5.02 | 1.75 | 0.32 | 1.51 | 0.444 | 0.311 | 0.781 | 0.946 | 11.8 | 0.591 | 0.422 |
| COc1ccc(C2=NNC(c3cc(Cc4ccc(O)c(C5CC(c6ccc(OC)cc6)=NN5)c4)ccc3O)C2)cc1 (stereo not given) | > 100 | > 100 | 34.1 | > 100 | 15 | 51.6 | > 100 | > 100 | > 100 | > 100 | 8.28 | 18.8 | 10.2 | 48.9 | 3.3 | 4.66 | 8.84 | 19.4 | 17.8 | 9.89 |
| Cc1ccc2c(n1)C(=O)C(Cl)=C(Nc1ccc(N3CCN(C)CC3)cc1)C2=O | 3.21 | 3.13 | 3.31 | 2.99 | 5.17 | 2.97 | 3.1 | 3.27 | 5.78 | 7.28 | 1.68 | 1.63 | 1.88 | 1.62 | 2.04 | 1.61 | 1.72 | 1.77 | 2.37 | 2.68 |
| NC(Cn1ccc(=O)c(O)c1)C(=O)O (stereo not given) | > 100 | > 100 | > 100 | > 100 | > 100 | > 100 | > 100 | > 100 | > 100 | > 100 |  |  |  |  |  |  |  |  |  |  |
| CCc1ccc(Oc2nccc(-c3c(-c4ccc(F)cc4)ncn3C3CCNCC3)n2)cc1 | 9.53 | 14.5 | 8.44 | 9.13 | 8.37 | 13.1 | 13.9 | 7.93 | 15.8 | 14.9 | 1.17 | 10.5 | 4.73 | 4.62 | 4.39 | 5.55 | 5.19 | 4.24 | 7.15 | 5.77 |
